The molecules below were run on P. falciparum 3D7 growth, pLDH absorbance (assay: P. falciparum 3D7 growth inhibition, dose response, strain 3D7 (AID 2305)).

Structure (SMILES) | IC50 [µM]
COc1cc(C(=O)NCCCN2CCN(c3cccc(Cl)c3)CC2)ccc1-c1cc2cc(Cl)c(Cl)cc2[nH]1 | 0.47
O=C(NC1CCN(Cc2ccccc2)CC1)c1ccc(-c2nc3cc(F)c(F)cc3[nH]2)s1 | 0.83
Cc1cc(Nc2cccc(C#N)c2)nc(Nc2ccccc2C)n1 | 0.86
O=C1NC(=O)C(c2ccc(Cl)cc2)=C1Nc1cccc(S(=O)(=O)C(F)(F)F)c1 | 0.74
O=[N+]([O-])c1cccc(-c2nc3ccc(C4=N[C@H]5CCCC[C@H]5N4)cc3[nH]2)c1 | 0.2
O=C(Nc1ccc(Cl)cc1)Nc1cccc(-c2ccc(-c3nc4ccc(F)cc4[nH]3)cc2)c1 | 0.05
O=C(NCc1cccc(F)c1)Nc1cccc(-c2cccc(-c3nc4ccccc4[nH]3)c2)c1 | 0.39
CC(C)C[C@H](NC(=O)c1ccc(OCCN2CCOCC2)cc1)C(=O)N[C@H](/C=N/N1CCN(C)C1=O)CCc1ccccc1 | 0.29
CC(C)C(C(=O)n1ncc2c3c(N)nc(N)nc3ccc21)C(C)C | 0.65
CC(C)C1=CC(=NOS(=O)(=O)c2ccccc2)C=C(C(C)C)C1=O | 0.71
CC[C@H]1CN(Cc2cccc(O)c2)CC[C@H]1CCCc1ccnc2ccc(O)cc12 | 0.53
Cc1ncccc1C(=O)Nc1cccc(-c2cccc(-c3nc4c(C)cccc4[nH]3)c2)c1 | 0.96
CN(C)C(CNC(=O)c1cc(-c2ccncc2)c(-c2ccc(NC(=O)Nc3ccccc3)cc2)o1)c1ccccc1 (configuration not stated) | 0.6
CCOc1cc(OCC)c2ccccc2c1CNCCCCCCNCc1c(OCC)cc(OCC)c2ccccc12 | 0.31
CCCN(CCC)C(=O)c1cc(-c2cccc(C)c2)nc2ccccc12 | 1.06
CS(=O)(=O)CCCNCc1ccc(-c2cc3c(Nc4ccc(OCc5ccccc5)cc4)ncnc3cn2)o1 | 0.65
Cc1ccc(C(=O)NCC2CCN(c3ccc(C(F)(F)F)cc3NC(=O)c3ccco3)CC2)cn1 | 0.78
CCCC(=O)NC(NC(=S)Nc1ccc([N+](=O)[O-])cc1)C(Cl)(Cl)Cl (configuration not stated) | 1.03
Cc1ccccc1C1CCN(C2CCC(NC(=O)c3cc(-c4ccc(Cl)cc4)cs3)CC2)CC1 (configuration not stated) | 0.16
O=C(N1CCN(c2cccc(C(F)(F)F)c2)CC1)C(Cl)(Cl)Cl | 0.89
COc1cccc2cc(C(=O)N[C@@H](CC(C)C)C(=O)N[C@H](/C=N/N3CC(=O)NC3=O)CC(C)C)oc12 | 0.92
CNC(=O)c1ccc2nc(C3CC3)n(CC3CCN(S(=O)(=O)c4cccc(Cl)c4)CC3)c2c1 | 0.65
CN(CCc1ccccc1)c1ncc(-c2cccc(CNCCC3CCCN3C)c2)cn1 (configuration not stated) | 0.87
Cc1cc(N[C@@H](Cc2ccccc2)C(=O)NCc2cccs2)nc(NCCc2cccnc2)n1 | 1.01

Structure (SMILES) | IC50 [µM]
CN(C)CCCNc1c2ccccc2nc2ccccc12 | 1.04
OC(CNc1ccnc(Nc2cccc(Cl)c2)n1)c1cccc(C(F)(F)F)c1 (configuration not stated) | 0.51
c1ccc2c(NCCCCCCCCCNc3ccnc4ccccc34)ccnc2c1 | 0.12
COc1cccc(-c2cnc(N)c(-c3nc4ccc(C(F)(F)F)cc4[nH]3)c2)c1 | 0.65
Cc1cc(N[C@@H](CC(C)C)C(=O)NC2CCCC2)nc(NCCc2ccc(F)cc2)n1 | 0.79
COc1ccc2nccc([C@@H](O)CN3CCC(NCc4ccc5c(c4)OCCO5)CC3)c2c1 | 0.29
CCN(CC)S(=O)(=O)c1ccc(CCOCCCCCNCC(O)c2cc(Cl)c(N)c(Cl)c2)s1 (configuration not stated) | 0.86
COc1ccc(Cn2c(Nc3cccc(C(F)(F)F)c3)nc3cc(C(=O)NCCN4CCCC4)cnc32)cc1Cl | 0.92
Oc1c(C=Nn2cnnc2)sc2ccccc12 | 0.91
CN(Cc1cccc(C#N)c1)C1CCN(c2cc(NC(=O)c3ccc(F)cc3)ccn2)CC1 | 1.07
CCCCNc1c(CC)c(C)c(C#N)c2nc3ccccc3n12 | 0.38
CC(=O)NC(c1cccs1)c1cc(Cl)c2cccnc2c1O (configuration not stated) | 0.32
COc1ccc(NC(=O)/C=C/c2ccccc2Cl)cc1OCCN1CCC(N2CCCCC2)CC1 | 0.9
COc1cc(NC(=O)/C=C/c2cc3ccccc3n2C)ccc1OCCN(C(C)C)C(C)C | 0.39
Cc1cc(N[C@@H](CC(C)C)C(=O)Nc2ccccc2)nc(Nc2ccccc2)n1 | 0.73
Cc1cc(C(=O)Nc2ccc3c(c2)CCN3C2CCN(Cc3cccc(F)c3F)C2)no1 (configuration not stated) | 0.58
CCc1c(C)nc(-n2nc(C)cc2NC(=O)CCc2ccccc2)[nH]c1=O | 0.75
CCN(CCCN1CCCCC1)c1cc(C)nc(Nc2cc(C)ccc2C)n1 | 0.66
CCN(CCNC(=O)Nc1cc(C(F)(F)F)cc(C(F)(F)F)c1)c1cccc(C)c1 | 0.8
COc1cc(-c2[nH]c(-c3ccc(OCCN(C)C)cc3)cc2-c2ccncc2)ccc1Cl | 1.79
CCCCN1C(=O)C(c2ccccc2)(c2ccccc2)N=C1N | 1.03
Cc1ccc(-n2ncc(C(=O)Nc3cc(Cl)cc(Cl)c3)c2C2CCNCC2)cc1C | 0.55
COc1ccc(CCN(Cc2cccs2)C(=O)c2cc3sccc3n2C)cc1OC | 0.35
Oc1ccc(-c2ccccc2)cc1CNC1CCCCC1 | 0.5

Structure (SMILES) | IC50 [µM]
CO/C(=C\C=C/c1cc2cc(Cl)c(Cl)cc2[nH]1)C(=O)NC1CC(C)(C)N(C)C(C)(C)C1 | 0.83
Cn1nccc1C(=O)NCCNCc1ccc(-c2cccc(-c3nc4ccccc4[nH]3)c2)cc1 | 0.14
CCOc1cc2c(cc1OCC)C(c1ccc(O)c(Cl)c1)NCC2 (configuration not stated) | 0.79
Cc1cc(C2CCN(CCCCNC(=O)c3ccc(-c4ccc(C(F)(F)F)cc4)cc3)CC2)c(C)cc1OCCOC1CCCCO1 (configuration not stated) | 0.79
O=C(/C=C/c1ccc(Cl)c(Cl)c1)NCCCCCN1CCC(CCNC(=O)/C=C/c2ccccc2F)CC1 | 0.87
OCCN1CCN(Cc2ccc(-c3cccc(-c4nc5ccccc5[nH]4)c3)cc2)CC1 | 0.75
CCOc1ccc(Cc2c(C)nc3nc(N)nc(N)c3c2C)cc1 | 1.06
c1cn(-c2ccc(CNc3nccc(Nc4ccc(OCCN5CCOCC5)cc4)n3)cc2)cn1 | 0.88
CC(C)C(=O)NC(c1cccs1)c1cc(Cl)c2cccnc2c1O (configuration not stated) | 0.58
COc1ccc(C2CCN(CCCCNC(=O)c3ccc(NC(=O)c4ccc(Cl)cc4)cc3)CC2)cc1Cl | 0.84
Cc1cc2ccc(-c3cccc(CN)c3)cc2nc1N | 0.76
O=C(Nc1ccc(-c2nc3ccccc3[nH]2)cc1)c1cnc(Cl)c(Cl)c1 | 0.73
NOCCCCOc1ccc(Cl)cc1 | 0.78
COc1cc(C2Nc3ccc4ccccc4c3C3=C2C(=O)CC(C)(C)C3)ccc1Oc1ccc([N+](=O)[O-])cc1C#N (configuration not stated) | 0.66
CCc1nc(N)nc(N)c1-c1ccc(C(C)C)cc1 | 0.83
CN(C)CCC1CCN(CCS(=O)(=O)c2cccc(Nc3ccc(-c4cccc(F)c4)cn3)c2)CC1 | 1.07
CCCCN(CCCC)CCCCCCNc1c2ccccc2nc2ccccc12 | 0.78
Cc1cc(NC(=O)NCCN2CCC(NS(=O)(=O)c3ccccc3F)CC2)c2ccccc2n1 | 0.95
N#Cc1ccc(C(=O)Nc2cccc(-c3ccc(CN4CCCC4)cc3)c2)cc1 | 0.72
COc1ccc(-c2cccc(CNC3CCN(C)CC3)c2)cc1S(=O)(=O)NCc1ccccc1 | 0.87
COc1ccc(CC(C)NCC(O)c2cccc(C(F)(F)F)c2)cc1 (configuration not stated) | 1.58
O=C(N[C@@H](CC1CCCCC1)C(=O)NC1CCCc2ccccc21)c1ccc(O)c(-c2ccc(Cl)c(Cl)c2)c1 (some centres not stated) | 0.2
CCOC(=O)NC1=NC(C)(C)N(OCCCOc2ccc(C)cc2C)C(NC(=O)OCC)=N1 | 0.13
COc1cc(C)ccc1N1CCN(CCCCNC(=O)c2ccc(NC(=O)c3ccc(Cl)cc3)cc2)CC1 | 0.7

From PubChem BioAssay AID2305 (GlaxoSmithKline (GSK), 2010)
